Measured values: patent US8637537B2, “Serine/threonine kinase inhibitors” (Genentech, Inc., priority 2011, dated 2014)
Read-outs that look alike come from different tables or passages of the source.

Target: T1, human recombinant GST-PAK1-KD protein (Homo sapiens, UniProt Q13153)
T1 construct: residues #249-545 of human PAK1, UniProtKP/Swiss Q13153; His6 (N); made in house; host or cells: Sf9 insect cells, pAcGP67 baculovirus expression vector
Experiment: GST-PAK1-KD (kinase domain) biochemical assay, microfluidic mobility shift
Details: Table I, PAK1 Ki class
Procedure: Activity of human recombinant GST-PAK1-KD protein was assessed in vitro assay by observing the phosphorylation of a fluorogenic peptide substrate.
The peptide substrate is a consensus sequence based on various PAK1 substrates reported in the scientific literature. […] Incubations were carried out at 22° C. in MatriCal MP101 384-well Metriplates™. […] Following the 30-minute incubation, the assay mixtures were quenched by the addition of 3 μL of 250 mM EDTA, and the substrate and phosphorylated product were separated by capillary electrophoresis and detected using LabChip® Caliper 3000 (Caliper Life Sciences).

T1 sequence (Q13153 249-545): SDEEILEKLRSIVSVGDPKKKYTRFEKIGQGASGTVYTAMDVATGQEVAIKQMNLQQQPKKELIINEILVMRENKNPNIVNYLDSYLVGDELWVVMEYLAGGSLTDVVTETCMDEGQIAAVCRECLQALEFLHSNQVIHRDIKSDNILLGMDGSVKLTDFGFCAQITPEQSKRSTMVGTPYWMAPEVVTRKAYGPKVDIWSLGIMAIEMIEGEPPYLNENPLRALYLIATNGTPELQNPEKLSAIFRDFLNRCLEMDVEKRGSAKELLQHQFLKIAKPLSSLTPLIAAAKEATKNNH

| Structure (SMILES) | Ki (read-out: Ki) [nM] | Ki (Ki) [nM] |
| --- | --- | --- |
| Cn1ccc2cc(CNc3nccc(Nc4cc(C5CC5)[nH]n4)n3)ccc21 [I-33, N^4-(5-Cyclopropyl-1H-pyrazol-3-yl)-N^2-((1-methyl-1H-indol-5-yl)methyl)pyrimidine-2,4-diamine] | 250 to 1000 |  |
| C[C@H](Nc1nccc(Nc2cc(C3CC3)[nH]n2)n1)c1ccc2cc[nH]c2c1 [I-34, (S)—N^2-(1-(1H-indol-6-yl)ethyl)-N^4-(5-cyclopropyl-1H-pyrazol-3-yl)pyrimidine-2,4-diamine] | 250 to 1000 |  |
| CC[C@@H](Nc1nccc(Nc2cc(C3CC3)[nH]n2)n1)c1ccc2[nH]cnc2c1 [I-43, N^2-[(1R)-1-(1H-benzimidazol-5-yl)propyl]-N^4-(5-cyclopropyl-1H-pyrazol-3-yl)pyrimidine-2,4-diamine] | 250 to 1000 |  |
| C[C@H](Nc1nccc(Nc2cc(C3CCCO3)[nH]n2)n1)c1ccc2[nH]cnc2c1 (stereo partly drawn) [I-44, N^2—((S)-1-(1H-benzo[d]imidazol-5-yl)ethyl)-N^4-(5-(tetrahydrofuran-2-yl)-1H-pyrazol-3-yl)pyrimidine-2,4-diamine] | 50 to 250 |  |
| C[C@H](Nc1ncc(Cl)c(Nc2cc(C3CC3)[nH]n2)n1)c1ccc2[nH]cnc2c1 [I-46, (S)—N^2-(1-(1H-benzo[d]imidazol-5-yl)ethyl)-5-chloro-N^4-(5-cyclopropyl-1H-pyrazol-3-yl)pyrimidine-2,4-diamine] | 50 to 250 |  |
| C[C@H](c1ccc2[nH]cnc2c1)N(C)c1nccc(Nc2cc(C3CC3)[nH]n2)n1 [I-55, (R)—N^2-(1-(1H-benzo[d]imidazol-5-yl)ethyl)-N^4-(5-cyclopropyl-1H-pyrazol-3-yl)-N^2-methylpyrimidine-2,4-diamine] | 50 to 250 |  |
| C[C@@H](Nc1nccc(Nc2cc(C3CC3)[nH]n2)n1)c1ccc2[nH]ccc2c1 [I-60, (R)—N^2-(1-(1H-indol-5-yl)ethyl)-N^4-(5-cyclopropyl-1H-pyrazol-3-yl)pyrimidine-2,4-diamine] |  | > 1000 |
| C[C@H](Nc1nccc(Nc2cc([C@@H]3CC3(F)F)[nH]n2)n1)c1ccc2[nH]cnc2c1 [I-61, N^2—((S)-1-(1H-benzo[d]imidazol-5-yl)ethyl)-N^4-(5-((S)-2,2-difluorocyclopropyl)-1H-pyrazol-3-yl)pyrimidine-2,4-diamine] | 50 to 250 |  |
| OCCN(Cc1ccc2[nH]cnc2c1)c1nccc(Nc2cc(C3CC3)[nH]n2)n1 [I-63, 2-(((1H-benzo[d]imidazol-5-yl)methyl)(4-(5-cyclopropyl-1H-pyrazol-3-ylamino)pyrimidin-2-yl)amino)ethanol] | 50 to 250 |  |
| C[C@H](Nc1nccc(Nc2cc([C@@H]3C[C@@H]3F)[nH]n2)n1)c1ccc2[nH]ccc2c1 [I-64, N^2—((S)-1-(1H-indol-5-yl)ethyl)-N^4-(5-((1S,2S)-2-fluorocyclopropyl)-1H-pyrazol-3-yl)pyrimidine-2,4-diamine] | 50 to 250 |  |
| C[C@H](Nc1nccc(Nc2cc([C@H]3C[C@H]3F)[nH]n2)n1)c1ccc2[nH]ccc2c1 [I-65, N^2—((S)-1-(1H-indol-5-yl)ethyl)-N^4-(5-((1R,2R)-2-fluorocyclopropyl)-1H-pyrazol-3-yl)pyrimidine-2,4-diamine] | < 50 |  |
| C[C@H](Nc1nccc(Nc2cc([C@H]3C[C@H]3F)[nH]n2)n1)c1ccc2[nH]cnc2c1 [I-68, N^2—((S)-1-(1H-benzo[d]imidazol-5-yl)ethyl)-N^4-(5-((1R,2R)-2-fluorocyclopropyl)-1H-pyrazol-3-yl)pyrimidine-2,4-diamine] | < 50 |  |
| C[C@H](Nc1nccc(Nc2cc([C@@H]3C[C@H]3F)[nH]n2)n1)c1ccc2[nH]cnc2c1 [I-69, N^2—((S)-1-(1H-benzo[d]imidazol-5-yl)ethyl)-N^4-(5-((1S,2R)-2-fluorocyclopropyl)-1H-pyrazol-3-yl)pyrimidine-2,4-diamine] | < 50 |  |
| C[C@H](Nc1nccc(Nc2cc([C@H]3C[C@@H]3F)[nH]n2)n1)c1ccc2[nH]cnc2c1 [I-70, N^2—((S)-1-(1H-benzo[d]imidazol-5-yl)ethyl)-N^4-(5-((1R,2S)-2-fluorocyclopropyl)-1H-pyrazol-3-yl)pyrimidine-2,4-diamine] | < 50 |  |
| CCN(Cc1ccc2[nH]cnc2c1)c1nccc(Nc2cc(C3CC3)[nH]n2)n1 [I-71, N^2-((1H-benzo[d]imidazol-5-yl)methyl)-N^4-(5-cyclopropyl-1H-pyrazol-3-yl)-N^2-ethylpyrimidine-2,4-diamine] | < 50 |  |
| C[C@H](Nc1nccc(Nc2cc([C@@H]3C[C@H]3F)[nH]n2)n1)c1ccc2[nH]ccc2c1 [I-72, N^2—((S)-1-(1H-indol-5-yl)ethyl)-N^4-(5-((1S,2R)-2-fluorocyclopropyl)-1H-pyrazol-3-yl)pyrimidine-2,4-diamine] | < 50 |  |
| C[C@H](Nc1nccc(Nc2cc([C@H]3C[C@@H]3F)[nH]n2)n1)c1ccc2[nH]ccc2c1 [I-73, N^2—((S)-1-(1H-indol-5-yl)ethyl)-N^4-(5-((1R,2S)-2-fluorocyclopropyl)-1H-pyrazol-3-yl)pyrimidine-2,4-diamine] | < 50 |  |

Second part, the compound after the results:

| Ki (read-out: Ki) [nM] | Ki (Ki) [nM] | Structure (SMILES) |
| --- | --- | --- |
| > 1000 |  | c1cc(Nc2cc(C3CC3)[nH]n2)nc(NCc2ccc3cc[nH]c3c2)n1 [I-35, N^2-((1H-Indol-6-yl)methyl)-N^4-(5-cyclopropyl-1H-pyrazol-3-yl)pyrimidine-2,4-diamine] |
| < 50 |  | c1cc(CNc2nccc(Nc3cc(C4CCC4)[nH]n3)n2)c2cc[nH]c2c1 [I-36, N^2-((1H-indol-4-yl)methyl)-N^4-(5-cyclobutyl-1H-pyrazol-3-yl)pyrimidine-2,4-diamine] |
| < 50 |  | O=C(c1c[nH]c2cccc(CNc3nccc(Nc4cc(C5CC5)[nH]n4)n3)c12)C(F)(F)F [I-37, 1-(4-((4-(5-cyclopropyl-1H-pyrazol-3-ylamino)pyrimidin-2-ylamino)methyl)-1H-indol-3-yl)-2,2,2-trifluoroethanone] |
| 50 to 250 |  | c1cc(CNc2nccc(Nc3cc(C4CC4)[nH]n3)n2)c2cc[nH]c2c1 [I-38, N^2-((1H-Indol-4-yl)methyl)-N^4-(5-cyclopropyl-1H-pyrazol-3-yl)pyrimidine-2,4-diamine] |
| 50 to 250 |  | CN(Cc1cccc2[nH]ccc12)c1nccc(Nc2cc(C3CC3)[nH]n2)n1 [I-40, N^2-((1H-Indol-4-yl)methyl)-N^4-(5-cyclopropyl-1H-pyrazol-3-yl)-N^2-methylpyrimidine-2,4-diamine] |
| 250 to 1000 |  | FC(F)(F)c1cc(Nc2cc(C3CC3)[nH]n2)nc(NCc2cccc3[nH]ccc23)n1 [I-41, N^2-((1H-indol-4-yl)methyl)-N^4-(5-cyclopropyl-1H-pyrazol-3-yl)-6-(trifluoromethyl)pyrimidine-2,4-diamine] |
| 250 to 1000 |  | c1cc(CNc2nccc(Nc3cc(OCC4CC4)[nH]n3)n2)c2cc[nH]c2c1 [I-42, N^2-((1H-indol-4-yl)methyl)-N^4(5-(cyclopropylmethoxy)-1H-pyrazol-3-yl)pyrimidine-2,4-diamine] |
| 250 to 1000 |  | Fc1ccc(CNc2nccc(Nc3cc(C4CC4)[nH]n3)n2)c2cc[nH]c12 [I-47, N^4-(5-cyclopropyl-1H-pyrazol-3-yl)-N^2-((7-fluoro-1H-indol-4-yl)methyl)pyrimidine-2,4-diamine] |
| 50 to 250 |  | c1cc(CNc2nccc(Nc3cc(CC4CC4)[nH]n3)n2)c2cc[nH]c2c1 [I-48, N^2-((1H-indol-4-yl)methyl)-N^4-(5-(cyclopropylmethyl)-1H-pyrazol-3-yl)pyrimidine-2,4-diamine] |
| 250 to 1000 |  | Clc1cnc(NCc2cccc3[nH]ccc23)nc1Nc1cc(C2CC2)[nH]n1 [I-49, N^2-((1H-indol-4-yl)methyl)-5-chloro-N^4-(5-cyclopropyl-1H-pyrazol-3-yl)pyrimidine-2,4-diamine] |
| 50 to 250 |  | c1cc(CNc2nccc(Nc3cc(C4CCCC4)[nH]n3)n2)c2cc[nH]c2c1 [I-50, N^2-((1H-indol-4-yl)methyl)-N^4-(5-cyclopentyl-1H-pyrazol-3-yl)pyrimidine-2,4-diamine] |
| 50 to 250 |  | c1cc(CNc2nccc(Nc3cc(C4CCOC4)[nH]n3)n2)c2cc[nH]c2c1 (stereo not drawn) [I-51, N^2-((1H-indol-4-yl)methyl)-N^4-(5-(tetrahydrofuran-3-yl)-1H-pyrazol-3-yl)pyrimidine-2,4-diamine] |
| 50 to 250 |  | Cc1ccc(CNc2nccc(Nc3cc(C4CC4)[nH]n3)n2)c2cc[nH]c12 [I-52, N^4-(5-Cyclopropyl-1H-pyrazol-3-yl)-N^2-((7-methyl-1H-indol-4-yl)methyl)pyrimidine-2,4-diamine] |
| < 50 |  | Fc1cc(CNc2nccc(Nc3cc(C4CC4)[nH]n3)n2)c2cc[nH]c2c1 [I-53, N^4-(5-cyclopropyl-1H-pyrazol-3-yl)-N^2-((6-fluoro-1H-indol-4-yl)methyl)pyrimidine-2,4-diamine] |
| 50 to 250 |  | Cc1cc(Nc2cc(C3CC3)[nH]n2)nc(NCc2cccc3[nH]ccc23)n1 [I-54, N^2-((1H-indol-4-yl)methyl)-N^4-(5-cyclopropyl-1H-pyrazol-3-yl)-6-methylpyrimidine-2,4-diamine] |
| > 1000 |  | Cc1cc(Nc2ccnc(NCc3cccc4[nH]ccc34)n2)n[nH]1 [I-56, N^2-((1H-indol-4-yl)methyl)-N^4-(5-methyl-1H-pyrazol-3-yl)pyrimidine-2,4-diamine] |
| 50 to 250 |  | CC(C)c1cc(Nc2ccnc(NCc3cccc4[nH]ccc34)n2)n[nH]1 [I-58, N^2-((1H-indol-4-yl)methyl)-N^4-(5-isopropyl-1H-pyrazol-3-yl)pyrimidine-2,4-diamine] |
| < 50 |  | FC1(F)C[C@H]1c1cc(Nc2ccnc(NCc3ccc4[nH]cnc4c3Cl)n2)n[nH]1 [I-74, (S)—N^2-((4-chloro-1H-benzo[d]imidazol-5-yl)methyl)-N^4-(5-(2,2-difluorocyclopropyl)-1H-pyrazol-3-yl)pyrimidine-2,4-diamine] |
| < 50 |  | FC1(F)C[C@@H]1c1cc(Nc2ccnc(NCc3ccc4[nH]cnc4c3Cl)n2)n[nH]1 [I-75, (R)—N^2-((4-chloro-1H-benzo[d]imidazol-5-yl)methyl)-N^4-(5-(2,2-difluorocyclopropyl)-1H-pyrazol-3-yl)pyrimidine-2,4-diamine] |
